What was measured:
STAT5 = assay: Western blot of STAT5 phosphorylation after JAK I; type: cell-based, human; settings: CMK cells, range of inhibitor concentrations
Description: AML-193, GDM-1, CMK, K562 and Ba/F3 cells were obtained from the German National Resource Centre for Biological Material (DSMZ). GF-D8 cells were generously provided by Dr. Orietta Spinelli, Laboratorio Paolo Belli, Bergamo, Italy. All cell lines were maintained in RPMI 1640 supplemented with 10% FCS, 1 unit/mL penicillin G, and 1 μg/mL streptomycin at 37° C. and 5% CO2. Western blotting was carried out according to standard methods, following the Western Blotting Protocol (Cell Signaling Technology, Inc., 2005-2006 Catalogue).
To further confirm the effect of the JAK I on the CMK cell line, Western blot analysis (as described above) was performed following exposure to a range of inhibitor concentrations, and the activity of the JAK3 downstream target, STAT5 examined (see FIG. 3C).

K562 cells = assay: CellTiter 96 AQueous One cell proliferation assay with JAK I, control cell line; type: cell-based; settings: control cell line K562, seventy hours, up to 2 micrograms/ml
Description: (§1) JAK I (Calbiochem, San Diego, Calif.) is a potent inhibitor of the JAK family of kinases, including JAK3. To confirm that JAK3 is driving the proliferation of CMK cells, the effect of JAK I on the growth and/or viability of CMK cells was examined. CMK and K562 cells (as a control) were treated for seventy hours with increasing doses of JAK I inhibitor up to 2 micrograms/ml. The number of viable cells was determined with the CellTiter 96 AQueous One solution cell proliferation assay (Promega). Apoptosis was measured with a fluorescent stain measuring annexin V.

CMK cells [1] = assay: Apoptosis by annexin V staining with JAK I; type: cell-based, human; settings: increasing concentrations
Description: as §1

CMK cells [2] = assay: CellTiter 96 AQueous One cell proliferation assay with JAK I; type: cell-based, human; settings: seventy hours, increasing doses up to 2 micrograms/ml
Description: as §1

[3] = system: control cells that do not express the mutant JAK3 protein; settings: control cells not expressing mutant JAK3
Excerpt: (§2) CP-690,550, which specifically binds to and blocks the ATP-binding site of JAK3 kinase, thereby preventing phosphorylation and activation of this enzyme, is commercially available and some of its properties have been described. See, e.g. Borne et al., Tranplantation 80 (12): 1756-1764 (2005); Paniagua et al., Tranplantation 80 (9): 1283-1292 (2005).

[4] = system: human AML cell line (CMK); settings: CMK cells expressing mutant (A572V) JAK3
Excerpt: as §2

SMILES | phosphorylation of STAT5 (STAT5) | growth and viability (K562 cells) | apoptosis as measured by annexin V staining (CMK cells [1]) | cell proliferation (CMK cells [2]) | viability (CMK cells [2]) | growth and survival [3] | growth and survival [4]
CC(C)(C)c1nc2c3cc[nH]c(=O)c3c3cc(F)ccc3c2[nH]1 [JAK I] | inhibited phosphorylation | no significant effect | increase in apoptosis | inhibition of cell proliferation | significant decrease in viability |  | 
C[C@@H]1CCN(C(=O)CC#N)C[C@@H]1N(C)c1ncnc2[nH]ccc12 [CP-690,550] |  |  |  |  |  | not in control cells | selectively inhibited the growth and survival

— patent US20090285796A1, “MUTANT JAK3 KINASE IN HUMAN LEUKEMIA” (CELL SIGNALING TECHNOLOGY, INC., priority 2006, published 2009)
